# Experimental data taken from ChEMBL document CHEMBL1131673, “Potent and orally bioavailable noncysteine-containing inhibitors of protein farnesyltransferase” (Bioorg Med Chem Lett, 1999).
# Columns and labels:
# [1] = molecular target: Protein farnesyltransferase (Homo sapiens, UniProt P49354+P49356); assay: In vitro inhibitory activity was evaluated against farnesyltransferase (FTase); assay type: protein-complex assay
# [2] = Oral bioavailability of compound determined in dog […] at a dose of 10 mg/kg; assay type: ADME, organism-based, Canis lupus familiaris; settings: in vivo
# [3] = Oral bioavailability of compound determined in rat […] at a dose of 10 mg/kg; assay type: ADME, organism-based; settings: in vivo
# [4] = Tmax of compound determined in rat after iv administration at a dose of 10 mg/kg; assay type: ADME, organism-based; parameters: dose 10 mg/kg, route intravenous; settings: in vivo
# [5] = Area under curve of compound from zero time to infinity determined in dog […] at a dose of 10 mg/kg; assay type: ADME, organism-based, Canis lupus familiaris; parameters: time infinity, dose 10 mg/kg, route intravenous; settings: in vivo
# Rattus norvegicus = assay: Maximum plasma drug concentration of compound determined in rat after iv administration at a dose of 10 mg/kg; assay type: ADME, organism-based; parameters: dose 10 mg/kg, route intravenous; settings: in vivo
# [6] = (§1) Half life of compound determined in rat after iv administration at a dose of 10 mg/kg; assay type: ADME, organism-based; parameters: dose 10 mg/kg, route intravenous; settings: in vivo
# [7] = Tmax of compound determined in dog […] at a dose of 10 mg/kg; assay type: ADME, organism-based, Canis lupus familiaris; parameters: dose 10 mg/kg, route intravenous; settings: in vivo
# [8] = Area under curve of compound determined in rat after iv administration at a dose of 10 mg/kg; assay type: ADME, organism-based; parameters: dose 10 mg/kg, route intravenous; settings: in vivo
# [9] = Area under curve of compound determined in dog after iv administration at a dose of 10 mg/kg; assay type: ADME, organism-based, Canis lupus familiaris; parameters: dose 10 mg/kg, route intravenous; settings: in vivo
# [10] = Area under curve of compound from zero time to infinity determined in rat after iv administration at a dose of 10 mg/kg; assay type: ADME, organism-based; parameters: time infinity, dose 10 mg/kg, route intravenous; settings: in vivo
# Canis familiaris = assay: Maximum plasma drug concentration of compound determined in dog […] at a dose of 10 mg/kg; assay type: ADME, organism-based, Canis lupus familiaris; parameters: dose 10 mg/kg, route intravenous; settings: in vivo
# [11] = Oral bioavailability of compound determined in mouse […] at a dose of 10 mg/kg; assay type: ADME, organism-based; settings: in vivo
# [12] = as §1; assay type: ADME, organism-based; parameters: dose 10 mg/kg, route intravenous; settings: in vivo; remark: listed apart in the source
SMILES,IC50 [1] [nM],further results
CSCC[C@H](NC(=O)c1ccc(CNCc2ccco2)cc1-c1ccccc1)C(=O)O,560,
COc1ccccc1-c1ccc(COCc2ccc(C(=O)N[C@@H](CCSC)C(=O)O)c(-c3ccccc3C)c2)o1,20,
CSCC[C@H](NC(=O)c1ccc(COCc2ccc(-c3ccccn3)o2)cc1-c1ccccc1C)C(=O)O,19,
CSCC[C@H](NC(=O)c1ccc(COCc2ccc(-c3ccc(Cl)c(F)c3)o2)cc1-c1ccccc1C)C(=O)O,4.9,
CSCC[C@H](NC(=O)c1ccc(COCc2ccc(-c3ccc(Cl)cc3)o2)cc1-c1ccccc1C)C(=O)[O-].[Li+],0.7,bioavailability [2]: 21.1%; bioavailability [3]: 30%; Tmax [4]: 42 min; AUC [5]: 1040 ng·h/mL; Cmax (Rattus norvegicus): 1250 ng/mL; half-life [6]: 74.4 min; Tmax [7]: 24 min; AUC [8]: 8100 ng·h/mL; AUC [9]: 4940 ng·h/mL; AUC [10]: 2390 ng·h/mL; Cmax (Canis familiaris): 713 ng/mL; bioavailability [11]: 32%; half-life [12]: 78 min
CSCC[C@H](NC(=O)c1ccc(COCc2ccc(-c3cccnc3)o2)cc1-c1ccccc1C)C(=O)O,6.5,
CSCC[C@H](NC(=O)c1ccc(COCc2ccc(-c3ccncc3)o2)cc1-c1ccccc1C)C(=O)O,2.4,
CSCC[C@H](NC(=O)c1ccc(COCc2ccc(-c3ccccc3)o2)cc1-c1ccccc1C)C(=O)O,6,
CSCC[C@H](NC(=O)c1ccc(COCc2ccc(-c3ccccc3F)o2)cc1-c1ccccc1C)C(=O)O,6.3,
CSCC[C@H](NC(=O)c1ccc(COCc2ccc(-c3ccc(C)cc3)o2)cc1-c1ccccc1C)C(=O)O,2.9,
CSCC[C@H](NC(=O)c1ccc(COCc2ccc(-c3ccc(SC)cc3)o2)cc1-c1ccccc1C)C(=O)O,6.2,
CSCC[C@H](NC(=O)c1ccc(COCc2ccc(-c3cccc(F)c3)o2)cc1-c1ccccc1C)C(=O)O,7.6,
CSCC[C@H](NC(=O)c1ccc(COCc2ccc(-c3ccc(N(C)C)cc3)o2)cc1-c1ccccc1C)C(=O)O,2.6,
CSCC[C@H](NC(=O)c1ccc(COc2ccccc2)cc1-c1ccccc1)C(=O)O,> 1000,
COc1ccc(-c2ccc(COCc3ccc(C(=O)N[C@@H](CCSC)C(=O)O)c(-c4ccccc4C)c3)o2)cc1,8.4,
CSCC[C@H](NC(=O)c1ccc(COCc2ccc(-c3cccc(C(F)(F)F)c3)o2)cc1-c1ccccc1C)C(=O)O,8.8,
CSCC[C@H](NC(=O)c1ccc(COCc2ccc(-c3ccc(F)cc3)o2)cc1-c1ccccc1C)C(=O)O,1.5,
COc1cccc(-c2ccc(COCc3ccc(C(=O)N[C@@H](CCSC)C(=O)O)c(-c4ccccc4C)c3)o2)c1,12,
CSCC[C@H](NC(=O)c1ccc(COCc2ccc(-c3ccccc3C(F)(F)F)o2)cc1-c1ccccc1C)C(=O)O,9.9,
CSCC[C@H](NC(=O)c1ccc(COCc2ccc(-c3ccc(C(C)C)cc3)o2)cc1-c1ccccc1C)C(=O)O,2.9,
CSCC[C@H](NC(=O)c1ccc(COCc2ccc(-c3ccc(C=O)cc3)o2)cc1-c1ccccc1C)C(=O)O,1.2,
CSCC[C@H](NC(=O)c1ccc(COCc2ccc(-c3ccc(C(F)(F)F)cc3)o2)cc1-c1ccccc1C)C(=O)O,3,
CSCC[C@H](NC(=O)c1ccc(COCc2ccc(-c3cccc([N+](=O)[O-])c3)o2)cc1-c1ccccc1C)C(=O)O,6,
COC(=O)[C@H](CCSC)NC(=O)c1ccc(COCc2ccc(Br)o2)cc1-c1ccccc1C,3,
CSCC[C@H](NC(=O)c1ccc(COCc2ccc(-c3ccc(C(C)=O)cc3)o2)cc1-c1ccccc1C)C(=O)O,6.6,
